Entries after “also recorded” stand apart in the source; their conditions may differ.
What was measured:
[1] = in vivo, po; cited from earlier work
ZIKV = test: Oral administration test in ZIKV-infected mice; type: in vivo; conditions: 225 mg/kg, vs vehicle
Description: Fig. S4. Oral administration test for the antiviral efficacy of fidaxomicin in vivo. a Schematic illustration of the animal experimental design for the oral administration test (n=10 animals per group). b Kaplan–Meier survival of ZIKV-infected mice treated with fidaxomicin at the dosage of 225mg/kg. c Body weight changes were recorded daily for ZIKV-infected mice treated with fidaxomicin at the dosage of 225mg/kg or with control delivery vehicle. d Tissue viral loads in the brains of ZIKV-infected mice were determined by RT-qPCR (P value, compared to vehicle control).

[2] = molecular target: T1, ZIKV NS5 full-length protein (Zika virus, UniProt A0A024B7W1); test: SPR (BIAcore) binding to ZIKV NS5 full-length protein
T1 construct: NS5 (amino acids 1 to 903); His tag (8x histidine) (N); made in house; host or cells: Escherichia coli (Rosetta)
Description: (§1) The cDNA fragment of ZIKV (ZG-01 strain) NS5 (amino acids 1 to 903), RdRp (amino acids 272 to 903), or DENV2 NS5 (amino acids 1 to 900) containing an N-terminal His tag sequence was cloned into a pET-30a-mutant vector. For protein expression, the plasmids were transformed into Rosetta™ competent cells (TIANGEN BIOTECH Co., Ltd., Beijing, China), respectively. […] Mass spectrometry was performed by Shanghai Applied Protein Technology Co. Ltd. (Shanghai, China). The concentration of a targeted protein was measured by SDS-PAGE using BSA (Sigma, St. Louis, MO) as a standard.
(§2) Surface plasmon resonance (SPR) experiments were performed in a BIAcore T100 device (BIAcore Inc., Uppsala, Sweden) using CM5 sensor chips (General Electric Company, GE) according to the protocol provided by the manufacturer. Briefly, recombinant ZIKV NS5 protein, RdRp protein, or DENV2 NS5 protein was immobilized on a CM5 chip, respectively. Different concentrations of fidaxomicin or ribavirin were injected at a flow rate of 30 μL/min for 3 min. Subsequently, data were collected for a 3-min association followed by a 20-min dissociation. The chip was regenerated by injecting 10 μL of 15 mM NaOH for 20 s. […] The binding kinetics was analyzed with the software BIAevaluation version 3.1 using a 1:1 Langmuir binding model. The Kd was calculated as previously described.

DENV2 NS5 protein = molecular target: T2, DENV2 NS5 protein (Dengue virus type 2, UniProt P14340); test: SPR (BIAcore) binding to DENV2 NS5 protein; conditions: qualitative
T2 construct: DENV2 NS5 (amino acids 1 to 900); His tag (N); made in house
Description: as §1, §2

ZIKV MR766 strain = test: In vitro antiviral assay, plaque assay, ZIKV MR766; type: cell-based; conditions: Zika virus, 48 h
Description: Various cell lines, including SNB19 (6 × 10^4/well, 10% FBS DMEM), A172 (7 × 10^4/well, 10% FBS DMEM), Vero (6 × 10^4/well 10% FBS DMEM), Huh7 (7 × 10^4/well, 10% FBS DMEM), HUVECs (7 × 10^4/well, 15% FBS M199 medium supplemented with 2 mM L-glutamine, 0.02 mg/mL endothelial cell growth supplement, and 0.05 mg/mL heparin), and A549 (6 × 10^4/well, 5% FBS DMEM), were plated in 12-well plates and allowed to attach overnight, followed by infection with ZIKV (ZG-01 strain or MR766 strain, respectively, at indicated MOI) in the presence of different concentrations of fidaxomicin, ribavirin, or vehicle control for 1 h, followed by two washes with 1 × PBS and incubated with fresh medium (without virus) consisting of corresponding concentrations of the compounds for further 48 h. The cell supernatants were collected to quantify ZIKV infection by plaque assay as previously described [47] or by RT-qPCR.

[3] = design: method as in PMID 22752858; conditions: rats; cited from earlier work
[4] = Excerpt: a. […] Data are expressed as mean ± SD. WBC: white blood cells; Lymph: lymphocytes; Mon: monocytes; Gran: granulocytes; RBC: red blood cells; HGB: hemoglobin concentration; HCT: hematocrit; MCV: mean corpuscular volume; MCH: mean corpuscular hemoglobin; MCHC: mean corpuscular hemoglobin concentration; RDW: red blood cell distribution width; PLT: platelets; MPV: mean platelet volume; PDW: platelet distribution width.
a. […] Data are expressed as mean ± SD. ALT: alanine aminotransferase; AST: aspartate aminotransferase; T-BIL: total bilirubin; ALB: albumin; γ-GT: γ-glutamyltransferase; ALP: alkaline phosphatase; TBA: total bile acid; BUN: blood urea nitrogen; UA: uric acid; CR: creatinine; T-CHO: total cholesterol; TG: triglyceride.
a. […] Data are expressed as mean ± SD.

[5] = system: STAT2 degradation induced by NS5; test: Western blotting of STAT2 in 293T cells transfected with ZIKV NS5; type: cell-based, human
Description: Tissue specimens obtained from mice or cells were lysed with RIPA lysis buffer (Millipore, Bedford, MA) containing a cocktail of protease and phosphatase inhibitors (Sigma-Aldrich, St. Louis, MO, USA). Protein concentrations were measured with a bicinchoninic acid (BCA) protein assay (Thermo Fisher Scientific, Rockford, IL, USA). Protein samples were separated by sodium dodecyl sulfate-polyacrylamide gel electrophoresis (SDS-PAGE) and transferred onto a polyvinylidene difluoride (PVDF) membrane. Non-specific antibody binding sites were blocked with 5% non-fat milk in Tris-buffered saline (TBS) (20 mM Tris-HCl [pH 7.6], 135 mM NaCl, and 0.1% Tween 20) for 1 h at room temperature and then incubated with the following primary antibodies: anti-STAT2 (1:1000, sc166201, Santa Cruz Biotechnology, Santa Cruz, CA, USA), anti-ZIKV E (1:1000, BF-1176-56, BioFront Technologies, Tallahassee, USA), anti-ZIKV NS5 (1:1000, BF-6A1-100UG, BioFront), and anti-ZIKV NS3 (1:1000, GTX133309, GeneTex, Alton Pkwy, Irvine, CA, USA). Anti-GAPDH (1:2000, ab181602, Abcam, Cambridge, MA, USA) or mouse anti-GAPDH (1:1000, ab9484, Abcam) was used as a loading control. […] The relative protein level was quantified by densitometry and normalized to GAPDH or mGAPDH level using Image J software (NIH, Bethesda, MD, USA).

T1 sequence (A0A024B7W1 2521-3423): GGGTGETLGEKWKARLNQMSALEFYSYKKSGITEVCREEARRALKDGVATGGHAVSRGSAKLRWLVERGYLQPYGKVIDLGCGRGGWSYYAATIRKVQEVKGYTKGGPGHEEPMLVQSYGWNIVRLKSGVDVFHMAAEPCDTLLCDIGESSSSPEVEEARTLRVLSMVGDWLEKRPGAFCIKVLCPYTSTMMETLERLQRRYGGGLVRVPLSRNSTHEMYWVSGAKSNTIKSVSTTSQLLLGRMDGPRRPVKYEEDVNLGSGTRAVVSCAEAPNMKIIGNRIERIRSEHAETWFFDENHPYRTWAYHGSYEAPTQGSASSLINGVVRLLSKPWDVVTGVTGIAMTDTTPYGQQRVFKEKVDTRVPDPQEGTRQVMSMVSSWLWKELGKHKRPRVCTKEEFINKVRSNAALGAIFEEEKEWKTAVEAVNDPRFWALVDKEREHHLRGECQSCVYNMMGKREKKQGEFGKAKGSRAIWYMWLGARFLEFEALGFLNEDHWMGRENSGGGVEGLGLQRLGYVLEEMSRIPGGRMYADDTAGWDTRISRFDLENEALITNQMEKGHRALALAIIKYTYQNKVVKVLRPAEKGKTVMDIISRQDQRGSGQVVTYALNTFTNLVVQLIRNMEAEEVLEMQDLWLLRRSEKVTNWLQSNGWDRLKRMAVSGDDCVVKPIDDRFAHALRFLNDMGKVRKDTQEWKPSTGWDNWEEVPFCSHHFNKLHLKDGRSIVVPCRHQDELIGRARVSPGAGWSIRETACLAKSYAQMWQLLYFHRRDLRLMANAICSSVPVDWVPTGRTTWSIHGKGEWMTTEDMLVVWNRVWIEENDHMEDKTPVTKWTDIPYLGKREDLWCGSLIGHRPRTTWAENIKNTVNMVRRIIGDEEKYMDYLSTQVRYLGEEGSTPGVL

In the case of `CCc1c(Cl)c(O)c(Cl)c(O)c1C(=O)O[C@H]1[C@H](O)[C@H](OC)[C@H](OC/C2=C\C=C\C[C@H](O)/C(C)=C/[C@H](CC)[C@@H](O[C@@H]3OC(C)(C)[C@@H](OC(=O)C(C)C)[C@H](O)[C@@H]3O)/C(C)=C/C(C)=C/C[C@@H]([C@@H](C)O)OC2=O)O[C@@H]1C` [Fidaxomicin], the “absorption through the gastrointestinal tract” value [1] is given as “minimally absorbed”, the plasma concentration [1] is given as “nanogram-per-milliliter scale” and the “outcome of ZIKV-infected mice after oral administration” value (ZIKV) is given as “did not improve the outcome; also recorded: only weakly antagonizes”. The Kd [2] was 18.1 µM, the “binding to DENV2 NS5 protein (SPR)” value (DENV2 NS5 protein) was “affinity” and the EC50 (ZIKV MR766 strain; A549 cells) was 13 ± 4.4 µM. For the same compound, the EC90 (ZIKV MR766 strain; A549 cells) was 42.2 ± 4.6 µM, the EC50 (ZIKV MR766 strain; Huh-7, Huh7 cells) was 7.3 ± 2.5 µM and the EC90 (ZIKV MR766 strain; Huh-7, Huh7 cells) was 16.2 ± 3.9 µM. For the same compound, the EC50 (ZIKV MR766 strain; SNB-19, SNB19 cells) was 6.8 ± 1.2 µM, the EC90 (ZIKV MR766 strain; SNB-19, SNB19 cells) was 9.5 ± 1.5 µM and the EC50 (ZIKV MR766 strain; Vero cells) was 12.4 ± 3 µM. For the same compound, the EC90 (ZIKV MR766 strain; Vero cells) was 45.2 ± 6.2 µM, the “No Observed Adverse Effect Level (NOAEL)” value [3] was 62.5 mg/kg and the maximum non-toxic dose ([4]; C57BL/6J (Ifnar1-/-), mouse, in vivo, 10 days) was > 200 mg/kg. It also gave an MPV ([4]; Ifnar1-/- C57BL/6J mice, 200 mg/kg, 10-day treatment, mean ± SD) of 4.95 ± 0.59 fL, an ALB ([4]; mouse, in vivo, 200 mg/kg) of 29.11 ± 5.19 g/L and an ALP ([4]; mouse, in vivo, 200 mg/kg) of 185.3±19.2 U/L. The ALT ([4]; mouse, in vivo, 200 mg/kg) was 39.1±4.22 U/L, the AST ([4]; mouse, in vivo, 200 mg/kg) was 130.74±18.3 U/L and the BUN ([4]; mouse, in vivo, 200 mg/kg) was 31.6 ± 3.54 mg/dL. For the same compound, the CR ([4]; mouse, in vivo, 200 mg/kg) was 17.62 ± 1.84 µmol/L, the “Gran#” value ([4]; mouse, in vivo, 200 mg/kg) was 0.92±0.23 10^9/L and the Gran% ([4]; mouse, in vivo, 200 mg/kg) was 19.82±4.42%. The HCT ([4]; mouse, in vivo, 200 mg/kg) was 38.96±2.72%, the HGB ([4]; mouse, in vivo, 200 mg/kg) was 124.14 ± 14.36 g/L and the “Lymph#” value ([4]; mouse, in vivo, 200 mg/kg) was 3.21±1.01 10^9/L. The Lymph% ([4]; mouse, in vivo, 200 mg/kg) was 75.75±8.94%, the MCH ([4]; mouse, in vivo, 200 mg/kg) was 14.73 ± 0.88 pg and the MCHC ([4]; mouse, in vivo, 200 mg/kg) was 302 ± 21.82 g/L. For the same compound, the MCV ([4]; mouse, in vivo, 200 mg/kg) was 51.61 ± 1.84 fL, the “Mon#” value ([4]; mouse, in vivo, 200 mg/kg) was 0.16±0.07 10^9/L and the Mon% ([4]; mouse, in vivo, 200 mg/kg) was 3.75±0.94%. For the same compound, the PDW ([4]; mouse, in vivo, 200 mg/kg) was 16.65±0.35, the PLT ([4]; mouse, in vivo, 200 mg/kg) was 891.6±337.3 10^9/L and the RBC ([4]; mouse, in vivo, 200 mg/kg) was 7.51±1.44 10^12/L. For the same compound, the RDW ([4]; mouse, in vivo, 200 mg/kg) was 17.56±1.04%, the T-BIL ([4]; mouse, in vivo, 200 mg/kg) was 21.14 ± 1.87 µmol/L and the T-CHO ([4]; mouse, in vivo, 200 mg/kg) was 3.12 ± 1.33 mmol/L. The TBA ([4]; mouse, in vivo, 200 mg/kg) was 12.75 ± 1.54 µmol/L, the TG ([4]; mouse, in vivo, 200 mg/kg) was 2.11 ± 0.45 mmol/L and the UA ([4]; mouse, in vivo, 200 mg/kg) was 182.61 ± 23.8 µmol/L. The WBC ([4]; mouse, in vivo, 200 mg/kg) was 4.25±1.11 10^9/L, the γ-GT ([4]; mouse, in vivo, 200 mg/kg) was 2.75±0.81 U/L and the “effect on STAT2 degradation in presence of NS5” value [5] was “did not prevent the degradation of STAT2”.

From paper PMC7392643, “Antibiotic fidaxomicin is an RdRp inhibitor as a potential new therapeutic agent against Zika virus” (BMC Medicine, 2020)
